Where a SMILES comes first, the peptide text is derived from it. Bridges are numbered along the chain shown (N, C = ends). [ ]: non-standard residue; d: D form. dPhe(4-CF3) = N[C@H](Cc1ccc(C(F)(F)F)cc1)C(=O)O; dTrp(6-F) = N[C@H](Cc1c[nH]c2cc(F)ccc12)C(=O)O; R8 = C=CCCCCCC[C@@](C)(N)C(=O)O; R5 = C=CCCC[C@@](C)(N)C(=O)O; S5 = C=CCCC[C@](C)(N)C(=O)O
What was measured:
[1] = test system: CellSensor p53RE-bla HCT116 cell line (p53 response element reporter); assay: HCT116 p53 β-lactamase reporter gene functional assay; format: cell-based, human; conditions: for p53 activation at 10 μM with and without DμVS: 10 μM peptide, unprocessed vs DμVS-processed cells
Experimental: The CellSensor™ p53RE‐bla HCT116 cell line (K1640, Thermo Scientific) was used for functional characterization of p53 pathway activation by DμVS‐delivered peptides. Assay was performed similarly to how previously described.[17] These cells harbor a stable integration of a β‐lactamase reporter gene under control of the p53 response element. Cells were maintained in McCoy's 5A medium (16600‐082, Invitrogen) with 10% dialyzed FBS (26400‐036, Invitrogen), blasticidin (R210‐01, Invitrogen), and penicillin/streptomycin according to the manufacturer's protocol. Peptides were synthesized as previously described.[16], [17] To set up the assay, peptides were first pre‐plated in assay medium (Opti‐MEM supplemented with 0.1 mM non‐essential amino acids [11140‐050, Invitrogen], 1 mM sodium pyruvate [11360‐070, Invitrogen], and penicillin/streptomycin) without FBS on 384‐well plates (Corning 3764) or 96‐well plates (Corning 3603) using a HP D300E digital dispenser (20 μl 384‐well, 50 μl 96‐well). Maximum DMSO concentration used was 0.3% v/v. Cells were washed, resuspended with 0.05% v/v trypsin, spun down for 5 min at 300× g, and resuspended in PBS. Cells were 70‐μm strained and then brought to a final cell density of 3 × 10^6 cells/ml in PBS. Cell suspension was connected to 15 mL P‐CAP of the DμVS system, and 2 mL were used to prime the system. DμVS process was then initiated at 120 psi and 20 μL (384‐well) or 50 μL (96‐well) were dispensed to microplate in wells that were pre‐defined in the Telios software and pre‐loaded with peptides 2× in assay medium. Unprocessed cells were added to the microplate in parallel. After DμVS processing/mixing with peptide, cells were incubated at 37°C for 4 h. β‐lactamase activity was detected using the ToxBLAzer loading kit (K1095, Invitrogen) according to the manufacturer's protocol. Plates were measured using the PHERAstar FSX microplate reader with a LiveBlazer optic module (1400‐G3M‐FI‐410‐530‐460, BMG Labtech). Maximum p53 activity was defined as the β‐lactamase activity induced by 30 μM MP‐081 (meanpos). Percent activation of individual samples (S) was calculated using the following equation, where meanveh represents the mean of vehicle controls: % activation=S−meanveh/meanpos−meanveh×100
Z‐factors were calculated using the formula: Z^′=1−3σpos+3σveh/meanpos−meanveh
Meanpos and σ pos represent the mean and standard deviation, respectively, of the raw ratiometric values for 30 μM MP‐081 and meanveh and σ veh represent the mean and standard deviation of the vehicle controls. Dose–response data EC50 values were determined using the “[Agonist] versus response—Variable slope (four parameters)” algorithm in GraphPad Prism. Single concentration data for expanded peptide set were analyzed using unpaired T‐tests with false discovery rate (FDR, 1.00%) multiple comparisons correction using the two‐stage step‐up (Benjamini, Krieger, and Yekutieli) method. Data were accumulated from at least five independent experimental runs.

MDM2 (1–125) protein = biological target: T1, MDM2 (1–125) protein (Homo sapiens, UniProt Q00987); assay: MDM2 binding assay (fluorescence anisotropy competition); conditions: competition vs 50 nM FAM-labeled 12/1 peptide, 250 nM MDM2; heat map of Figure 5a
T1 construct: made in house
T1 sequence (Q00987 1-125): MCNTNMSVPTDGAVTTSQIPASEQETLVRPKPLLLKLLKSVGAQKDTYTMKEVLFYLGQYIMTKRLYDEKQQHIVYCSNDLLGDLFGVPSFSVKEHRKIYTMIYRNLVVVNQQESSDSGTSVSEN
Experimental: MDM2 protein generation and binding studies were performed as described.[17] […] The competing molecules were then titrated against the complex of the FAM‐labeled peptide and protein. Curve‐fitting was carried out using Prism 4.0 (GraphPad) to determine K D values. Readings were carried out with an Envision Multilabel Reader (PerkinElmer). […] All titrations were carried out in triplicate.

Compound	p53 activation at 10 μM with and without DμVS [1]	Kd (MDM2 (1–125) protein) [nM]	EC50 ([1]; DμVS-based assay format, expanded peptide set, read-out: DμVS-p53 reporter EC50 (validated hits, dose response)) [nM]
CC(C)C[C@@H](NC(=O)[C@@H](CC(C)C)NC(=O)[C@@H](CCCCN)NC(=O)[C@@H](CCC(=O)O)NC(=O)[C@@H](Cc1ccccc1)NC(=O)[C@@H](CC(N)=O)NC(=O)[C@@H](C)NC(=O)[C@@H](Cc1ccc(O)cc1)NC(=O)[C@@H](Cc1c[nH]c2ccccc12)NC(=O)[C@@H](C)NC(=O)[C@H](N)[C@H](C)O)C(=O)N[C@H](CCCNC(=N)N)C(N)=O [MP-182, H-DThr-DAla-DTrp-DTyr-DAla-DAsn-DPhe-DGlu-DLys-DLeu-DLeu-DArg-NH2] (H-[dT][dA][dW][dY][dA][dN][dF][dE][dK][dL][dL][dR]-NH2)	lack of activity		
CC(=O)N[C@@H](C(=O)N[C@H](C)C(=O)N[C@H](Cc1c[nH]c2ccccc12)C(=O)N[C@H](Cc1ccc(O)cc1)C(=O)N[C@H](C)C(=O)N[C@H](CC(N)=O)C(=O)N[C@H](Cc1ccccc1)C(=O)N[C@H](CCC(=O)O)C(=O)N[C@H](CCCCN)C(=O)N[C@H](CC(C)C)C(=O)N[C@H](CC(C)C)C(=O)N[C@H](CCCNC(=N)N)C(N)=O)[C@H](C)O [MP-183, Ac-DThr-DAla-DTrp-DTyr-DAla-DAsn-DPhe-DGlu-DLys-DLeu-DLeu-DArg-NH2] (Ac-[dT][dA][dW][dY][dA][dN][dF][dE][dK][dL][dL][dR]-NH2)	lack of activity		
CC(C)C[C@H]1NC(=O)[C@@H](CC(C)C)NC(=O)[C@@](C)(NC(=O)[C@@H](CCC(=O)O)NC(=O)[C@@H](Cc2ccc(C(F)(F)F)cc2)NC(=O)[C@@H](CC(N)=O)NC(=O)[C@@H](C)NC(=O)[C@@H](Cc2ccc(O)cc2)NC(=O)[C@@H](Cc2c[nH]c3cc(F)ccc23)NC(=O)[C@@H](C)NC(=O)[C@H](N)[C@H](C)O)CCCC=CCCC[C@](C)(C(N)=O)NC1=O [MP-313, H-DThr-DAla-DTrp(6-F)-DTyr-DAla-DAsn-DPhe(4-CF3)-DGlu-S5*-DLeu-DLeu-R5*-NH2] (H-[dT][dA][dTrp(6-F)][dY][dA][dN][dPhe(4-CF3)][dE][S5][dL][dL][R5]-NH2; staple 9-12)	no p53 reporter activity improvement	1.7	
CC(=O)N[C@@H](CC(C)C)C(=O)N[C@H](C(=O)N[C@H](Cc1ccccc1)C(=O)N[C@]1(C)CCCCCCC=CCCC[C@@](C)(C(=O)N[C@@H](C)C(=O)N[C@@H](C)C(=O)N[C@@H](C)C(=O)N[C@@H](C)C(=O)N[C@@H](C)C(=O)N[C@H](C)C(N)=O)NC(=O)[C@H](CC(C)C)NC(=O)[C@H](CCC(N)=O)NC(=O)[C@H](C)NC(=O)[C@H](Cc2c[nH]c3ccccc23)NC(=O)[C@H](Cc2ccc(O)cc2)NC(=O)[C@H](CCC(=O)O)NC1=O)[C@@H](C)O [MP-990, Ac-Leu-Thr-DPhe-R8*-Glu-Tyr-Trp-Ala-Gln-Leu-S5*-Ala-Ala-Ala-Ala-Ala-DAla-NH2] (Ac-LT[dF][R8]EYWAQL[S5]AAAAA[dA]-NH2; staple 4-11)	no activity in either format		
H-Lys(N3)-betaAla-Leu-Thr-Phe-R8*-Glu-Tyr-Trp-Ala-Gln-Cba-S5*-Ser-Ala-Ala-Lys(mPEG24)-NH2 [MP-414]	showed functional activity		1000

— article PMC10487316, “A high‐throughput microfluidic mechanoporation platform to enable intracellular delivery of cyclic peptides in cell‐based assays” (Bioengineering & Translational Medicine, 2023)
